SMILES strings stand for the structures.

One assay concerns the target T1, ER (Homo sapiens, UniProt P03372).
T1 construct: host or cells: T47D and MCF7 human breast cancer cells
T1 sequence (P03372 1-595): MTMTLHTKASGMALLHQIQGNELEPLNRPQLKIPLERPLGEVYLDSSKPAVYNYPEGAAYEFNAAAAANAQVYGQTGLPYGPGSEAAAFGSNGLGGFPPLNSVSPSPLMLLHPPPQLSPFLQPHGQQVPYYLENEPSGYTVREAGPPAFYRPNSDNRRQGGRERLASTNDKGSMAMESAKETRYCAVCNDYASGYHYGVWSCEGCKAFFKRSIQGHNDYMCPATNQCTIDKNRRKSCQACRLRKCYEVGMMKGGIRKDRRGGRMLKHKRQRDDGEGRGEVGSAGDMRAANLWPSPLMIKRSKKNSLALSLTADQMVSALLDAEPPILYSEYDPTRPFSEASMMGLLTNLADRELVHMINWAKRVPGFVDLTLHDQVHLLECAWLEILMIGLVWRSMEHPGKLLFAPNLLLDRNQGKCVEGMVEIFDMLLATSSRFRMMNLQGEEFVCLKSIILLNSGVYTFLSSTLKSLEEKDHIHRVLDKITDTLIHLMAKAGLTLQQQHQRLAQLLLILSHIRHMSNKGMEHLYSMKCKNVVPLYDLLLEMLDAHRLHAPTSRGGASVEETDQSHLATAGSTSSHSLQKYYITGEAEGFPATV
The assay is described as follows: ER degradation activity, in-cell western blot analysis in T47D cells. Format: cell-based. To be noted: 16 hours, Table A does not say which cell line (T47D or MCF7), read-out: Potency (DC50). An outline of the steps:
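Human T47D cells (DMEM, 10% FBS) are dosed for 16 h with 0.5% DMSO final and probed with 680- and 800-dye secondary antibodies. Relative ER is calculated against vehicle and untreated wells.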
As to `O=C1CCC(N2C(=O)c3cc4c(cc3C2=O)CN(C(=O)C2CCN(CC3CN(c5ccc([C@@H]6c7ccc(O)cc7CC[C@@H]6c6ccccc6)cc5)C3)CC2)C4)C(=O)N1` (stereo partly drawn) [E 295, 2-(2,6-dioxopiperidin-3-yl)-6-(1-((1-(4-((1R,2S)-6-hydroxy-2-phenyl-1,2,3,4-tetrahydronaphthalen-1-yl)phenyl)azetidin-3-yl)methyl)piperidine-4-carbonyl)-6,7-dihydropyrrolo[3,4-f]isoindole-1,3(2H,5H)-dione], the DC50 is more than 100 nM.
The same measure, in the same setting: as for `C[C@@H]1Cc2c([nH]c3ccccc23)[C@@H](c2ccc(C3CCC(C(=O)N4CCC(N5Cc6cc7c(cc6C5)C(=O)N(C5CCC(=O)NC5=O)C7=O)CC4)CC3)cn2)N1CC(F)F` (stereo partly drawn) [E 313, 6-(1-(4-(6-((1S,3R)-2-(2,2-difluoroethyl)-3-methyl-2,3,4,9-tetrahydro-1H-pyrido[3,4-b]indol-1-yl)pyridin-3-yl)cyclohexane-1-carbonyl)piperidin-4-yl)-2-(2,6-dioxopiperidin-3-yl)-6,7-dihydropyrrolo[3,4-f]isoindole-1,3(2H,5H)-dione], the figure is 10 to 100 nM; as for `O=C1CCC(N2C(=O)c3cc4c(cc3C2=O)CN(C2CCN(CC3CCN(c5ccc([C@@H]6c7ccc(O)cc7CC[C@@H]6c6ccccc6)cc5)CC3)CC2)C4)C(=O)N1` (stereo partly drawn) [E 271, 2-(2,6-dioxopiperidin-3-yl)-6-(1-((1-(4-((1R,2S)-6-hydroxy-2-phenyl-1,2,3,4-tetrahydronaphthalen-1-yl)phenyl)piperidin-4-yl)methyl)piperidin-4-yl)-6,7-dihydropyrrolo[3,4-f]isoindole-1,3(2H,5H)-dione], less than 10 nM; as for `O=C1CCC(N2C(=O)c3cc4c(cc3C2=O)CN(C2CCC(C(=O)N3CCN(c5ccc([C@@H]6c7ccc(O)cc7CC[C@@H]6c6ccccc6)cc5)CC3)CC2)C4)C(=O)N1` (stereo partly drawn) [E 291, 2-(2,6-dioxopiperidin-3-yl)-6-(4-(4-(4-((1R,2S)-6-hydroxy-2-phenyl-1,2,3,4-tetrahydronaphthalen-1-yl)phenyl)piperazine-1-carbonyl)cyclohexyl)-6,7-dihydropyrrolo[3,4-f]isoindole-1,3(2H,5H)-dione], more than 100 nM.
Still for that read-out and setting: as for `C[C@@H]1Cc2c([nH]c3ccccc23)[C@@H](c2c(F)cc(N3CCCC(CN4CCC(C(=O)N5Cc6cc7c(cc6C5)C(=O)N(C5CCC(=O)NC5=O)C7=O)CC4)C3)cc2F)N1CC(F)F` (stereo partly drawn) [E 58, 6-(1-((1-(4-((1R,3R)-2-(2,2-difluoroethyl)-3-methyl-2,3,4,9-tetrahydro-1H-pyrido[3,4-b]indol-1-yl)-3,5-difluorophenyl)piperidin-3-yl)methyl)piperidine-4-carbonyl)-2-(2,6-dioxopiperidin-3-yl)-6,7-dihydropyrrolo[3,4-f]isoindole-1,3(2H,5H)-dione], the figure is 10 to 100 nM.
The same measure, in the same setting: as for `C[C@@H]1Cc2c([nH]c3ccccc23)[C@@H](c2c(F)cc(CN3CCC4(CCC(CN5Cc6cc7c(cc6C5)C(=O)N(C5CCC(=O)NC5=O)C7=O)CC4)CC3)cc2F)N1CC(F)F` (stereo partly drawn) [E 380, 6-((3-(4-((1R,3R)-2-(2,2-difluoroethyl)-3-methyl-2,3,4,9-tetrahydro-1H-pyrido[3,4-b]indol-1-yl)-3,5-difluorobenzyl)-3-azaspiro[5.5]undecan-9-yl)methyl)-2-(2,6-dioxopiperidin-3-yl)-6,7-dihydropyrrolo[3,4-f]isoindole-1,3(2H,5H)-dione], the figure is more than 100 nM; as for `C[C@@H]1Cc2c([nH]c3ccccc23)[C@@H](c2ccc(N3CCC(C(=O)N4CCC(N5Cc6cc7c(cc6C5)C(=O)N(C5CCC(=O)NC5=O)C7=O)CC4)CC3)cc2)N1CC(F)F` (stereo partly drawn) [E 263, 6-(1-(1-(4-((1R,3R)-2-(2,2-difluoroethyl)-3-methyl-2,3,4,9-tetrahydro-1H-pyrido[3,4-b]indol-1-yl)phenyl)piperidine-4-carbonyl)piperidin-4-yl)-2-(2,6-dioxopiperidin-3-yl)-6,7-dihydropyrrolo[3,4-f]isoindole-1,3(2H,5H)-dione], 10 to 100 nM.

Still in this assay, the particulars now being: compounds 16 hours, Table A does not say whether T47D or MCF7, read-out: Potency (DC50).
For `O=C1CCC(N2C(=O)c3cc4c(cc3C2=O)CN(CC(=O)N2CCC3(CC2)CCN(c2ccc([C@@H]5c6ccc7[nH]ncc7c6CC[C@@H]5c5ccccc5)cc2)CC3)C4)C(=O)N1` (stereo partly drawn) [E 423, 2-(2,6-dioxopiperidin-3-yl)-6-(2-oxo-2-(9-(4-((6R,7S)-7-phenyl-6,7,8,9-tetrahydro-3H-benzo[e]indazol-6-yl)phenyl)-3,9-diazaspiro[5.5]undecan-3-yl)ethyl)-6,7-dihydropyrrolo[3,4-f]isoindole-1,3(2H,5H)-dione], the DC50 fell in the range of 10 to 100 nM.
Still for that read-out and setting: next, `COc1c2c(cc3c1C(=O)N(C1CCC(=O)NC1=O)C3=O)CN(CC(=O)N1CCC3(CC1)CCN(c1ccc([C@@H]4c5ccc(O)cc5CC[C@@H]4c4ccccc4)cc1)CC3)C2` (stereo partly drawn) [E 420, 2-(2,6-dioxopiperidin-3-yl)-6-(2-(9-(4-((1R,2S)-6-hydroxy-2-phenyl-1,2,3,4-tetrahydronaphthalen-1-yl)phenyl)-3,9-diazaspiro[5.5]undecan-3-yl)-2-oxoethyl)-4-methoxy-6,7-dihydropyrrolo[3,4-f]isoindole-1,3(2H,5H)-dione]: 10 to 100 nM; `C[C@@H]1Cc2c([nH]c3ccccc23)[C@@H](c2ccc(C3CCC(C(=O)N4CCC(N5Cc6cc7c(cc6C5)C(=O)N(C5CCC(=O)NC5=O)C7=O)CC4)CC3)c(F)c2)N1CC(F)F` (stereo partly drawn) [E 475, 6-(1-(4-(4-((1R,3R)-2-(2,2-difluoroethyl)-3-methyl-2,3,4,9-tetrahydro-1H-pyrido[3,4-b]indol-1-yl)-2-fluorophenyl)cyclohexane-1-carbonyl)piperidin-4-yl)-2-(2,6-dioxopiperidin-3-yl)-6,7-dihydropyrrolo[3,4-f]isoindole-1,3(2H,5H)-dione]: 10 to 100 nM.
Still for that read-out and setting: as for `C[C@@H]1Cc2c(ccc3[nH]ncc23)[C@@H](c2ccc(N3CCC4(CCN(C(=O)CN5Cc6cc7c(cc6C5)C(=O)N(C5CCC(=O)NC5=O)C7=O)CC4)CC3)cn2)N1CC(F)(F)F` (stereo partly drawn) [E 413, 2-(2,6-dioxopiperidin-3-yl)-6-(2-(9-(6-((6S,8R)-8-methyl-7-(2,2,2-trifluoroethyl)-6,7,8,9-tetrahydro-3H-pyrazolo[4,3-f]isoquinolin-6-yl)pyridin-3-yl)-3,9-diazaspiro[5.5]undecan-3-yl)-2-oxoethyl)-6,7-dihydropyrrolo[3,4-f]isoindole-1,3(2H,5H)-dione], the figure is less than 10 nM.
With `O=C1CCC(N2C(=O)c3cc4c(cc3C2=O)CN(CC2CC3(CCN(C(=O)c5ccc([C@@H]6c7ccc(O)cc7CC[C@@H]6c6ccccc6)cc5)CC3)C2)C4)C(=O)N1` (stereo partly drawn) [E 494, 2-(2,6-dioxopiperidin-3-yl)-6-((7-(4-((1R,2S)-6-hydroxy-2-phenyl-1,2,3,4-tetrahydronaphthalen-1-yl)benzoyl)-7-azaspiro[3.5]nonan-2-yl)methyl)-6,7-dihydropyrrolo[3,4-f]isoindole-1,3(2H,5H)-dione], the DC50 was more than 100 nM.
The same measure, in the same setting: next, `C[C@@H]1Cc2cc(O)ccc2[C@H](c2ccc(C(=O)N3CC4(CCN(C(=O)CN5Cc6cc7c(cc6C5)C(=O)N(C5CCC(=O)NC5=O)C7=O)CC4)C3)cc2)N1CC(F)F` (stereo partly drawn) [E 460, 6-(2-(2-(4-((1S,3R)-2-(2,2-difluoroethyl)-6-hydroxy-3-methyl-1,2,3,4-tetrahydroisoquinolin-1-yl)benzoyl)-2,7-diazaspiro[3.5]nonan-7-yl)-2-oxoethyl)-2-(2,6-dioxopiperidin-3-yl)-6,7-dihydropyrrolo[3,4-f]isoindole-1,3(2H,5H)-dione]: 10 to 100 nM.

Broadly, the DC50 is the concentration at which degradation of the target reaches its halfway point.

Source of the values: patent publication US20240190880A1 (THE REGENTS OF THE UNIVERSITY OF MICHIGAN, priority 2021, published 2024).
